The test system of one assay is U937 cells. The assay can be described thus: Cellular assay in U937 cells: activity of RIPK1 inhibitors on TNFα/zVAD.fmk-induced cell death (necroptosis), CellTiter 96 AQueous (MTS) readout. The format is cell-based. The note with it: Homo sapiens, U-937. In short, it runs like this:
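Necroptosis was measured by viable-cell MTS reduction (4 h, absorbance 490 nm) after overnight (18–24 h) 37° C culture. Cell suspensions of U937 cells carried TNFα (100 ng/ml) plus zVAD.fmk (50 μM) before compound was added. A 10-point curve (10 μM–0.26 nM or 1 μM–0.07 nM) was run in duplicate, normalised to the control lacking TNFα/zVAD.fmk.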

Assay [1] has as its target T1, hRIPK1 (aa 1-375) fusion protein (Homo sapiens, UniProt Q13546).
T1 construct: hRIPK1 (aa 1-375) fusion protein
T1 sequence (Q13546 1-375): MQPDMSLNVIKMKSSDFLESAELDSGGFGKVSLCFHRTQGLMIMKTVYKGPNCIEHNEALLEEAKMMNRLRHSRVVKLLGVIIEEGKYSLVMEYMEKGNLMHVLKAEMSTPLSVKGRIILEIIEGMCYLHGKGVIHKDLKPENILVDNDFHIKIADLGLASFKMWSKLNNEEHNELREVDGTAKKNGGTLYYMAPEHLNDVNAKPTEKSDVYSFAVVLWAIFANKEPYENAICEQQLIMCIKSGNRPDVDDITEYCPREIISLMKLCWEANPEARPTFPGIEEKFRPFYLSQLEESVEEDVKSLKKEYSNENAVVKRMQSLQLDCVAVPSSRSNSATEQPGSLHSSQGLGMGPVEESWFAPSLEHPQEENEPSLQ
The assay can be described thus: ADP-Glo kinase assay: catalytic activity of RIPK1 (autophosphorylation, conversion of ATP to ADP). The format is biochemical. In outline:
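hRIPK1 (aa 1-375) fusion protein (3.6 μg/ml final) was preincubated 30 min at rt with compound (33300-1.69 nM, 1% DMSO), then 50 μM ATP was added for 240 min at rt. ADP from autophosphorylation was measured by ADP-Glo luminescence and curves fitted by nonlinear regression.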
(In general: ADP-Glo turns the ADP formed in a reaction into a luminescent signal.)

In general, IC50 refers to the concentration at which inhibition is half-maximal.

Structures are written as SMILES.

For the compound `O=C1NCc2ccc(C[C@H]3CC[C@H](C(=O)N4OCC[C@H]4c4cnccn4)CC3)cc21` [compound 145, trans-6-[[4-[(3S)-3-pyrazin-2-ylisoxazolidine-2-carbonyl]cyclohexyl]methyl]isoindolin-1-one], the IC50 with U937 cells is 0.016 µM; in assay [1] it was 0.029 µM.

Take `Cc1nc([C@@H]2CCON2C(=O)[C@H]2CC[C@H](Cc3cc(C)c4ncnn4c3)CC2)cs1` [compound 362, trans-[(S)-3-(2-Methyl-thiazol-4-yl)-isoxazolidin-2-yl]-[4-(8-methyl-[1,2,4]triazolo[1,5-a]pyridin-6-ylmethyl)-cyclohexyl]-methanone]: the IC50 with U937 cells turned out to be 0.052 µM; in assay [1], 0.059 µM.

As for `Cc1nc([C@@H]2CCON2C(=O)[C@H]2CC[C@H](Cc3cc(F)c4nnc(C)n4c3)CC2)cs1` [compound 363, trans-[4-(8-Fluoro-3-methyl-[1,2,4]triazolo[4,3-a]pyridin-6-ylmethyl)-cyclohexyl]-[(S)-3-(2-methyl-thiazol-4-yl)-isoxazolidin-2-yl]-methanone], the half-maximal inhibitory concentration (IC50) worked out at 0.222 µM in the assay with U937 cells and 0.18 µM in assay [1].

Regarding `N#Cc1cc(F)cc([C@@H]2CCON2C(=O)[C@H]2CC[C@H](Cn3ccc4ccc(C(N)=O)cc43)CC2)c1` [compound 104, trans-1-((4-((S)-3-(3-cyano-5-fluorophenyl)isoxazolidine-2-carbonyl)cyclohexyl)methyl)-1H-indole-6-carboxamide], the IC50 came to 0.005 µM in the assay on U937 cells and 0.018 µM in assay [1].

On to `N#Cc1cncc([C@@H]2CCON2C(=O)[C@H]2CC[C@H](Cn3ccc4cc(C(N)=O)ccc43)CC2)c1` [compound 252, trans-1-[[4-[(3S)-3-(5-cyano-3-pyridyl)isoxazolidine-2-carbonyl]cyclohexyl]methyl]indole-5-carboxamide], for which the figures for the IC50 (in the assay on U937 cells; in assay [1]) were 0.054 µM and 0.017 µM, respectively.

Take `Cc1cc(C[C@H]2CC[C@H](C(=O)N3OCC[C@H]3c3cc(F)cc(F)c3)CC2)ncn1` [compound 313, trans-[(3S)-3-(3,5-difluorophenyl)isoxazolidin-2-yl]-[4-[(6-methylpyrimidin-4-yl)methyl]cyclohexyl]methanone]: the values for the IC50 (in the assay on U937 cells; in assay [1]) were 0.04 µM and 0.042 µM, respectively.

Take `COc1cncc([C@@H]2CCON2C(=O)[C@H]2CC[C@H](Cc3ccc(C)c(C(N)=O)c3)CC2)n1` [compound 166, trans-5-[[4-[(3S)-3-(6-methoxypyrazin-2-yl)isoxazolidine-2-carbonyl]cyclohexyl]methyl]-2-methyl-benzamide]: the IC50 in the assay with U937 cells turned out to be 0.05 µM; in assay [1], 0.008 µM.

For `O=C([C@H]1CC[C@H](Cn2ccc3ncc(F)cc32)CC1)N1OCC[C@H]1c1cc(F)cc(F)c1` [compound 94, trans-((S)-3-(3,5-difluorophenyl)isoxazolidin-2-yl)(4-((6-fluoro-1H-pyrrolo[3,2-b]pyridin-1-yl)methyl)cyclohexyl)methanone], the half-maximal inhibitory concentration (IC50) in the assay with U937 cells amounted to 0.001 µM; in assay [1], 0.019 µM.

As to `N#Cc1cncc([C@@H]2CCON2C(=O)[C@H]2CC[C@H](Cc3cc(F)cc(CO)c3)CC2)c1` [compound 257, trans-5-[(3S)-2-[4-[[3-fluoro-5-(hydroxymethyl)phenyl]methyl]cyclohexanecarbonyl]isoxazolidin-3-yl]pyridine-3-carbonitrile], the IC50 with U937 cells amounted to 0.002 µM; in assay [1], 0.01 µM.

As to `N#Cc1cnc2cnn(C[C@H]3CC[C@H](C(=O)N4OCC[C@H]4c4cnccn4)CC3)c2c1` [compound 137, trans-1-[[4-[(3S)-3-pyrazin-2-ylisoxazolidine-2-carbonyl]cyclohexyl]methyl]pyrazolo[4,3-b]pyridine-6-carbonitrile], the IC50 in the assay on U937 cells was 0.046 µM; in assay [1] it was 0.03 µM.

Take `Cc1ccc([C@@H]2CCON2C(=O)[C@H]2CC[C@H](Cc3ccc4nnc(C)n4c3C)CC2)cn1` [compound 376, [4-(3,5-Dimethyl-[1,2,4]triazolo[4,3-a]pyridin-6-ylmethyl)-cyclohexyl]-[(S)-3-(6-methyl-pyridin-3-yl)-isoxazolidin-2-yl]-methanone]: the IC50 in the assay with U937 cells was 0.09 µM; in assay [1], 0.075 µM.

Consider `Cc1nc([C@@H]2CCON2C(=O)[C@H]2CC[C@H](Cn3ncc4cc(C#N)ccc43)CC2)cs1` [compound 202, trans-1-[[4-[(3S)-3-(2-methylthiazol-4-yl)isoxazolidine-2-carbonyl]cyclohexyl]methyl]indazole-5-carbonitrile], for which the IC50 was 0.039 µM in the assay with U937 cells and 0.019 µM in assay [1].

With `N#Cc1cc(F)c2ncn(C[C@H]3CC[C@H](C(=O)N4OCC[C@H]4c4cc(F)cc(F)c4)CC3)c2c1` [compound 37, trans-1-((4-((S)-3-(3,5-difluorophenyl)isoxazolidine-2-carbonyl)cyclohexyl)methyl)-4-fluoro-1H-benzo[d]imidazole-6-carbonitrile], the IC50 in the assay with U937 cells is 0.005 µM; in assay [1] it was 0.017 µM.

For `Cc1ncc([C@@H]2CCON2C(=O)[C@H]2CC[C@H](Cc3cc(F)c4ncnn4c3)CC2)cc1F` [compound 392, trans-[(3S)-3-(5-fluoro-6-methylpyridin-3-yl)-1,2-oxazolidin-2-yl]-[4-[(8-fluoro-[1,2,4]triazolo[1,5-a]pyridin-6-yl)methyl]cyclohexyl]methanone], the IC50 in the assay on U937 cells was 0.018 µM; in assay [1], 0.032 µM.

For `Cc1ccc([C@@H]2CCON2C(=O)[C@H]2CC[C@H](Cc3cc(C)c4nc(C)nn4c3)CC2)cn1` [compound 325, trans-[4-[(2,8-dimethyl-[1,2,4]triazolo[1,5-a]pyridin-6-yl)methyl]cyclohexyl]-[(3S)-3-(6-methyl-3-pyridyl)isoxazolidin-2-yl]methanone], the values for the IC50 (in the assay on U937 cells; in assay [1]) were 0.108 µM and 0.125 µM, respectively.

In the case of `Cc1nc2c(C)cc(C[C@H]3CC[C@H](C(=O)N4OCC[C@H]4c4cncc(F)c4)CC3)cn2n1` [compound 331, trans-[4-[(2,8-dimethyl-[1,2,4]triazolo[1,5-a]pyridin-6-yl)methyl]cyclohexyl]-[(3S)-3-(5-fluoropyridin-3-yl)-1,2-oxazolidin-2-yl]methanone], the values for the half-inhibitory concentration (IC50) (with U937 cells; in assay [1]) were 0.02 µM and 0.015 µM, respectively.

`Cc1nc([C@@H]2CCON2C(=O)[C@H]2CC[C@H](Cn3cc4ccc(C(N)=O)cc4n3)CC2)cs1` [Compound 233, trans-2-[[4-[(3S)-3-(2-methylthiazol-4-yl)isoxazolidine-2-carbonyl]cyclohexyl]methyl]indazole-6-carboxamide]: the IC50 came to 0.384 µM in the assay on U937 cells and 0.114 µM in assay [1].

On to `N#Cc1cc(F)cc([C@@H]2CCON2C(=O)[C@H]2CC[C@H](Cn3ccc4ncc(O)cc43)CC2)c1` [compound 129, trans-3-fluoro-5-[(3S)-2-[4-[(6-hydroxypyrrolo[3,2-b]pyridin-1-yl)methyl]cyclohexanecarbonyl]isoxazolidin-3-yl]benzonitrile], for which the IC50 amounted to 0.007 µM in the assay on U937 cells and 0.029 µM in assay [1].

For `Cc1nccn1-c1cc(F)cc(C[C@H]2CC[C@H](C(=O)N3OCC[C@H]3c3cc(F)cc(F)c3)CC2)c1` [compound 208, trans-[(3S)-3-(3,5-difluorophenyl)isoxazolidin-2-yl]-[4-[[3-fluoro-5-(2-methylimidazol-1-yl)phenyl]methyl]cyclohexyl]methanone], the figures for the IC50 (in the assay with U937 cells; in assay [1]) were 0.012 µM and 0.024 µM, respectively.
